Conditions: for log10 BCF / log10 biotransformation half-life (days): fish

Row | Compound | melting point [°C] | boiling point [°C] | also measured
1 | Cc1ccc(/N=C/N(C)/C=N/c2ccc(C)cc2C)c(C)c1 | 86 | – | log10 Henry constant (atm·m³/mol): -5.01; log10 Koc (L/kg): 3; log10 vapour pressure (mmHg): -5.7
2 | COC(=O)C(C)Cl (stereo not drawn) | – | 132 | ready biodegradability: readily biodegradable
3 | CCCC(=O)OC(C)C | – | 130 | –
4 | C1=CCCC1 | -135 | 44.2 | log10 vapour pressure (mmHg): 2.58; ready biodegradability: readily biodegradable
5 | O=C(O)CCCCc1ccccc1 | 57.5 | – | –
6 | CCOC(=O)C(C(=O)OCC)=C(C)C | – | 176 | –
7 | c1ccc2c(c1)ccc1[nH]c3ccccc3c12 | 134 | 448 | –
8 | C=CC[C@H](O)CCC | – | 152 | –
9 | O=CNC(O)C(Cl)(Cl)Cl (stereo not drawn) | 120 | – | –
10 | O=C(O)Cc1ccc(O)cc1 | 152 | – | –
11 | CCCCCCCCCCCCOS(=O)(=O)c1ccccc1 | – | – | ready biodegradability: readily biodegradable
12 | CN1CC[C@]23c4c5ccc(O)c4O[C@H]2C(=O)CC[C@@]3(O)[C@H]1C5 | 248 | – | –
13 | OCCSCCCCCCCCCCSCCO | 69.5 | – | –
14 | CCCCCCCCCCCCCCCC(=O)OC(C)C | 13.5 | – | log10 vapour pressure (mmHg): -4.25
15 | N#CCc1ccccc1[N+](=O)[O-] | 84 | – | –
16 | CCCC(=O)N(C)C | -40 | 186 | –
17 | CCCCCCCC[C@H](O)[C@H](O)CCCCCCCC(=O)O | 90 | – | –
18 | CCCCCCCCCCCCCCCC(=O)OCCCC | 16.9 | – | –
19 | CCCC(O)(CC)CC | – | 160 | –
20 | CON(C)C(=O)Nc1ccc(Oc2ccc3c(c2)OC(C)(OC)CC3(C)C)cc1 (stereo not drawn) | 102 | – | –
21 | CC(=O)c1cc(C)ccc1O | 50 | 210 | –
22 | CC(C(=O)O)c1ccc(C(=O)c2cccs2)cc1 (stereo not drawn) | 124 | – | –
23 | O=C1OC(=O)C2=C1CCCC2 | 74 | – | –
24 | CCCCN(CCCC)CCCN | – | 205 | –
25 | OCCN1CCOCC1 | -1.6 | 227 | ready biodegradability: readily biodegradable

Row | Compound | melting point [°C] | boiling point [°C] | also measured
26 | S=C1NCCN1 | 203 | 347 | ready biodegradability: not readily biodegradable; log10 BCF: 0.26
27 | C=C(C)Cl | -137 | 22.6 | log10 vapour pressure (mmHg): 2.91
28 | CC(C)CCCCO | – | 170 | –
29 | CC(C)OC(=O)C1(S(=O)(=O)c2ccc(Cl)cc2)CCCC1 | 92.5 | – | –
30 | CCCCCCCCCCCCCC | 5.8 | 254 | log10 biodegradation half-life (days): 1.36; log10 vapour pressure (mmHg): -1.94; ready biodegradability: readily biodegradable; log10 biotransformation half-life (days): 1.49
31 | COc1cc2c(c(OC)c1OC)-c1ccc(OC)c(=O)cc1[C@@H](NC(C)=O)CC2 | 156 | – | –
32 | FC(Cl)C(F)(F)C(F)(F)Cl (stereo not drawn) | – | 56.1 | log10 vapour pressure (mmHg): 2.46
33 | COc1cc(OC)cc(OC)c1 | 54.5 | 256 | –
34 | CC(=O)NC(N)=S | 165 | – | –
35 | CN(C)O | 108 | – | log10 vapour pressure (mmHg): 1.33
36 | CC(=O)CC(=O)Nc1ccccc1 | 86 | – | log10 vapour pressure (mmHg): -4.28; ready biodegradability: readily biodegradable
37 | COC(=O)N/N=C/c1c[n+]([O-])c2ccccc2[n+]1[O-] | 240 | – | –
38 | CC(=O)OCC(=O)[C@@]1(O)[C@@H](C)C[C@H]2[C@@H]3CCC4=CC(=O)C=C[C@]4(C)[C@@]3(F)[C@@H](O)C[C@@]21C | 248 | – | –
39 | CC(=O)C=O | – | 72 | log10 Henry constant (atm·m³/mol): -6.57
40 | CC(C)(C)OC(=O)CC(=O)OC(C)(C)C | -6 | – | –
41 | CC1=CC[C@@H]2[C@H]3[C@@H](C(C)C)CC[C@]2(C)[C@@H]13 | – | 248 | –
42 | CC(C)C(C)(C)C(C)(C)C | -36.4 | 166 | –
43 | CCOC(=O)CC1CCCCC1 | – | 211 | –
44 | CC1(C)C(C(=O)OC(C#N)c2cccc(Oc3ccccc3)c2)C1(C)C (stereo not drawn) | 47 | – | log10 vapour pressure (mmHg): -5.26
45 | CC(=O)Oc1ccccc1C(=O)Oc1ccccc1 | 96 | – | –
46 | Nc1ccccc1S(=O)(=O)O | – | – | ready biodegradability: not readily biodegradable
47 | CCC/C=C/CCCCCC | -80.3 | 193 | –
48 | CC(C)CCCCCCCOC(=O)c1ccccc1C(=O)OCCCCCCCC(C)C | -45.6 | – | log10 vapour pressure (mmHg): -6.28; ready biodegradability: readily biodegradable; log10 BCF: 1.16
49 | NCCc1c[nH]c2ccc(O)cc12 | 168 | – | –
50 | CCCOC(=O)c1ccccc1 | -51.6 | 211 | log10 vapour pressure (mmHg): -0.867

Row | Compound | melting point [°C] | boiling point [°C] | also measured
51 | C=CC(=O)NC(C)(C)C | 128 | – | –
52 | C#CC(C)(C)C | -78.2 | 37.7 | –
53 | C#CC(C)OC(=O)Nc1cccc(Cl)c1 (stereo not drawn) | 45.5 | – | log10 Koc (L/kg): 2.21; log10 vapour pressure (mmHg): -4.8
54 | Cc1cc(O)cc(O)c1 | 108 | 290 | ready biodegradability: not readily biodegradable
55 | BrCC(Br)Br | -29.3 | 189 | –
56 | COc1cc(C(=O)N2CCOCC2)cc(OC)c1OC | 121 | – | –
57 | c1ccc2c(c1)Cc1ccccc1N2 | – | 347 | –
58 | C=C(Cl)CO | – | – | ready biodegradability: readily biodegradable
59 | CN(C)C1CSSC1 | 177 | – | log10 BCF: 1.72
60 | N#CC(=NO)c1ccccc1 | 129 | – | –
61 | BrC(Br)=C(Br)Br | 56.5 | 226 | –
62 | CCCOCCO | – | 150 | log10 vapour pressure (mmHg): 0.494
63 | Oc1ccc2c(c1)CCCC2 | 57 | 276 | –
64 | O=[N+]([O-])c1c(Cl)cccc1Cl | 72.5 | – | –
65 | OCCCCCCCCO | 63 | – | –
66 | ClC(Cl)=C(Cl)C(Cl)(Cl)Cl | -72.9 | 210 | log10 vapour pressure (mmHg): -0.613
67 | CCCC(C)(COC(N)=O)COC(=O)NC(C)C (stereo not drawn) | 92 | – | –
68 | CCSCc1ccccc1OC(=O)NC | 33.4 | – | log10 vapour pressure (mmHg): -5.15
69 | C1CC[C@H]2CCC[C@@H]2C1 (racemic) | -53 | 167 | –
70 | CCCCCCCCCCCCCCCCCCCCCCCCC | 54 | 402 | log10 biodegradation half-life (days): 2.08; log10 vapour pressure (mmHg): -5.82; ready biodegradability: readily biodegradable
71 | CC(C)c1ccccc1Cl | -74.4 | 191 | –
72 | C1=CCCCC1 | -104 | 82.9 | log10 Henry constant (atm·m³/mol): -1.34; log10 Koa: 2.83; log10 vapour pressure (mmHg): 1.95; ready biodegradability: not readily biodegradable
73 | CCCCCCn1c(=O)c2c(ncn2C)n(C)c1=O | 82.5 | – | –
74 | CCCCCCCC(C)C | -74.6 | 167 | log10 vapour pressure (mmHg): 0.276
75 | COC(=O)CSc1cc(/N=c2\sc(=O)n3n2CCCC3)c(F)cc1Cl | 106 | – | log10 vapour pressure (mmHg): -8.48

Row | Compound | melting point [°C] | boiling point [°C] | also measured
76 | CCCOCC(C)OCC(C)O (stereo not drawn) | 7.08 | 212 | –
77 | CCCCC(CC)C(=O)OCC(COC(=O)C(CC)CCCC)OC(=O)C(CC)CCCC (stereo not drawn) | – | – | ready biodegradability: readily biodegradable
78 | CCCCCCBr | -84.7 | 155 | log10 vapour pressure (mmHg): 0.591
79 | CC1CC(=O)C(C)(C)C1 (stereo not drawn) | -40.6 | 158 | –
80 | CC1=CC(C)(C)Nc2ccccc21 | 26.5 | 260 | ready biodegradability: not readily biodegradable
81 | O=c1ccc2cc(Cl)ccc2o1 | 165 | – | –
82 | C=CCCCCCCC | -81.3 | 147 | log10 Koa: 3.83; log10 vapour pressure (mmHg): 0.732; ready biodegradability: not readily biodegradable; log10 BCF: 3.17; log10 biotransformation half-life (days): 0.52
83 | CCCCCCOCCOCCO | -40 | 260 | log10 vapour pressure (mmHg): -2.93
84 | C[Si](F)(F)c1ccccc1 | – | – | log10 vapour pressure (mmHg): 0.881
85 | C[Si](C)(C)O[Si](C)(C)O[Si](C)(C)C | -80 | 153 | log10 Henry constant (atm·m³/mol): 1.49; log10 vapour pressure (mmHg): 0.524
86 | COc1ccc(-c2coc3cc(O)ccc3c2=O)cc1 | 256 | – | –
87 | CCCCCCCCCCCCCCC(C)O (stereo not drawn) | 44 | 314 | –
88 | Fc1ccc(C(F)(F)F)cc1 | -41.7 | 104 | –
89 | O=C1CN=C(c2ccccc2)c2cc([N+](=O)[O-])ccc2N1 | 225 | – | –
90 | Oc1ccc(Cl)c2c1CCC2 | 92 | – | –
91 | NS(=O)(=O)c1cc2c(cc1Cl)NC(Cc1ccc(F)cc1)NS2(=O)=O (stereo not drawn) | 239 | – | –
92 | c1ccc(Cn2ccnc2)cc1 | 69 | 310 | –
93 | Cc1cccnc1 | -18.1 | 144 | log10 Henry constant (atm·m³/mol): -5.11; log10 vapour pressure (mmHg): 0.782; ready biodegradability: not readily biodegradable
94 | O=C(O)Cc1ccccc1O | 148 | 240 | –
95 | CC(=O)Nc1ccc(Cl)cc1 | 179 | 333 | –
96 | Clc1ccc(Oc2ccc(Cl)cc2Cl)cc1 | – | – | log10 vapour pressure (mmHg): -3.82; log10 biotransformation half-life (days): 1.72
97 | S=C(c1ccccc1)c1ccccc1 | 53.5 | – | –
98 | CCc1c(C)c[nH]c1C | 0 | 199 | –
99 | O=CC1CCCCC1 | – | 159 | –
100 | Cc1cccc(C)c1C | -25.4 | 176 | log10 Henry constant (atm·m³/mol): -2.36; log10 Koc (L/kg): 2.8; log10 biodegradation half-life (days): 0.602; log10 vapour pressure (mmHg): 0.228; ready biodegradability: not readily biodegradable; log10 BCF: 2.29; log10 biotransformation half-life (days): -0.22

Row | Compound | melting point [°C] | boiling point [°C] | also measured
101 | Clc1ccc(-c2cccc(Cl)c2Cl)cc1Cl | – | – | log10 biotransformation half-life (days): 2.47
102 | CCCCCCCCCCCCCCCBr | 19 | 322 | log10 vapour pressure (mmHg): -3.83
103 | O=C(O)c1ccccc1-c1ccccc1 | 114 | 344 | –
104 | Clc1cccc(-c2cc(Cl)c(Cl)cc2Cl)c1 | – | – | log10 Henry constant (atm·m³/mol): -4
105 | COc1cccc2c(=O)c3c(n(C)c12)O[C@@H](C(C)C)C3 | 119 | – | –
106 | C/C=C/C=O | -76.2 | 103 | log10 Henry constant (atm·m³/mol): -4.84; log10 vapour pressure (mmHg): 1.48
107 | CCCCCCC(C)=O | -16 | 172 | log10 Henry constant (atm·m³/mol): -3.73; log10 vapour pressure (mmHg): 0.13; ready biodegradability: readily biodegradable
108 | Cc1cc(-c2ccc(N)c(C)c2)ccc1N | 132 | 339 | ready biodegradability: not readily biodegradable; log10 BCF: 1.67
109 | Clc1ccc(Cl)c(Oc2ccccc2)c1Cl | – | – | log10 vapour pressure (mmHg): -3.55
110 | CCCCCCCCCCCCCCCCCC(=O)OCC | 33 | – | log10 vapour pressure (mmHg): -5.59
111 | CC(=O)Oc1ccc([N+](=O)[O-])cc1 | 78 | – | –
112 | COc1cccc(N(C)C(=S)Oc2cccc(C(C)(C)C)c2)n1 | 86 | – | –
113 | CC(C)C(C)(C)C | -25 | 80.8 | log10 biodegradation half-life (days): 0.778; log10 vapour pressure (mmHg): 2.01
114 | CCN(O)CC | 10 | 133 | log10 vapour pressure (mmHg): 0.526; ready biodegradability: not readily biodegradable
115 | CCOC(=O)c1ccccc1C | – | 227 | –
116 | O=C(O)c1cc(F)ccc1F | 133 | – | –
117 | CCc1ccccc1-c1ccccc1 | -6 | 266 | –
118 | O=C(N/N=C/c1ccccc1O)c1ccncc1 | 232 | – | –
119 | CC(C)=CCCC(C)CCO (stereo not drawn) | – | – | log10 vapour pressure (mmHg): -1.36
120 | CCCC(C)(C)C(C)CC (stereo not drawn) | – | 161 | –
121 | O=c1cc(-c2ccc(O)cc2)oc2cc(O)cc(O)c12 | 348 | – | –
122 | Cc1cc2ccccc2oc1=O | 91 | 292 | –
123 | Cc1cc(Cl)ccc1N | 30.3 | 244 | ready biodegradability: not readily biodegradable; log10 BCF: 1.54

— the OPERA property sets (Mansouri et al. 2018)
